Measurements: US10738028B2, “Spiro three-membered ring, spiro five-membered ring peptide deformylase inhibitor and use thereof in antibacteria and anti-tumor” (priority 2016, dated 2020)
Where two headings read alike, the source gives them in different places.

Key:
Type in all cases: cell-based
[1] = test system: BEL-7402 liver cancer cell line; test: CCK-8 proliferation inhibition; settings: concentration of 30 μM; for inhibition at 30 µM: Homo sapiens, Bel-7402, 72 h
Summary of the method: (§1)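 Plating at 2000 cells/well, then incubation overnight at 37° C. Next, a range of compound concentrations for 72 hours (control 1‰ DMSO). Finally, medium decanted and CCK-8 diluted 1:10 added.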

[2] = test system: A549 lung cancer cell line; test: CCK-8 proliferation inhibition; settings: concentration of 30 μM; for inhibition at 30 µM: Homo sapiens, A549, 72 h
Summary of the method: as §1

[3] = test system: MGC-803 gastric cancer cell line; test: CCK-8 proliferation inhibition; settings: Homo sapiens, MGC-803, 72 h, concentration of 30 μM
Summary of the method: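 Using media specific to each line (1640 for MGC-803 and Jurkat, F12 for PC3, DMEM high glucose for MCF-7, each with 10% newborn bovine serum), cells at 2000/well were treated for 72 h with serially formulated compounds, then assessed with CCK-8 diluted 1:10.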

[4] = test system: Moraxella catarrhalis (BCA); test: MIC, two-fold agar dilution (CLSI), clinical isolates
Summary of the method: (§2)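 Test samples were assayed by the CLSI-recommended two-fold agar dilution method, and the minimum inhibitory concentration against each tested strain was determined.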

[5] = test system: Enterococcus faecalis (EFA); test: as above
Summary of the method: as §2

[6] = test system: methicillin-sensitive Staphylococcus epidermidis (MSSE); test: as above; settings: for Anti-bacterial activity (MIC), strain MSSE 15-3: clinical isolate MSSE 15-3; for Anti-bacterial activity (MIC), strain MSSE 15-4: clinical isolate MSSE 15-4; for Anti-bacterial activity (MIC), strain MSSE 15-5: clinical isolate MSSE 15-5; for Anti-bacterial activity (MIC), strain MSSE 15-6: clinical isolate MSSE 15-6
Summary of the method: as §2

[7] = test system: Enterococcus faecium (EFM); test: as above
Summary of the method: as §2

[8] = test system: methicillin-resistant Staphylococcus aureus (MRSA); test: as above; settings: for Anti-bacterial activity (MIC), strain MRSA 15-1: clinical isolate MRSA 15-1; for Anti-bacterial activity (MIC), strain MRSA 15-2: clinical isolate MRSA 15-2; for Anti-bacterial activity (MIC), strain MRSA 15-3: clinical isolate MRSA 15-3; for Anti-bacterial activity (MIC), strain MRSA 15-4: clinical isolate MRSA 15-4
Summary of the method: as §2

[9] = test system: Escherichia coli (including ESBLs, non-ESBLs); test: as above; settings: for Anti-bacterial activity (MIC), strain ECO+ 15-1: clinical isolate ECO+ 15-1; for Anti-bacterial activity (MIC), strain ECO+ 15-2: clinical isolate ECO+ 15-2; for Anti-bacterial activity (MIC), strain ECO+ 15-3: clinical isolate ECO+ 15-3; for Anti-bacterial activity (MIC), strain ECO+ 15-4: clinical isolate ECO+ 15-4; for Anti-bacterial activity (MIC), strain ECO− 15-1: clinical isolate ECO− 15-1; for Anti-bacterial activity (MIC), strain ECO− 15-2: clinical isolate ECO− 15-2; for Anti-bacterial activity (MIC), strain ECO− 15-3: clinical isolate ECO− 15-3; for Anti-bacterial activity (MIC), strain ECO− 15-4: clinical isolate ECO− 15-4
Summary of the method: as §2

[10] = test system: methicillin-resistant Staphylococcus epidermidis (MRSE); test: as above; settings: for Anti-bacterial activity (MIC), strain MRSE 15-1: clinical isolate MRSE 15-1; for Anti-bacterial activity (MIC), strain MRSE 15-2: clinical isolate MRSE 15-2; for Anti-bacterial activity (MIC), strain MRSE 15-3: clinical isolate MRSE 15-3; for Anti-bacterial activity (MIC), strain MRSE 15-7: clinical isolate MRSE 15-7
Summary of the method: as §2

[11] = test system: methicillin-sensitive Staphylococcus aureus (MSSA); test: as above; settings: for Anti-bacterial activity (MIC), strain MSSA 15-3: clinical isolate MSSA 15-3; for Anti-bacterial activity (MIC), strain MSSA 15-4: clinical isolate MSSA 15-4; for Anti-bacterial activity (MIC), strain MSSA 15-5: clinical isolate MSSA 15-5; for Anti-bacterial activity (MIC), strain MSSA 15-6: clinical isolate MSSA 15-6
Summary of the method: as §2

[12] = test system: Streptococcus pneoumoniae (SPN); test: as above
Summary of the method: as §2

[13] = test system: HCT-116 colorectal cancer cell line; test: CCK-8 proliferation inhibition; settings: concentration of 30 μM, 72 hours, CCK-8; for inhibition at 30 µM: Homo sapiens, HCT-116, 72 h
Summary of the method: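 Proliferation over 72 hours of compound treatment was measured with CCK-8 against a 1‰ DMSO control.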

[14] = read-out: HCT116 inhibition rate/%

O=C(C[C@@H](CC1CCCC1)C(=O)N1CC2(CC2)C[C@H]1C(=O)Nc1ccno1)NO [Example 70, (S)-5-((R)-2-(cyclopentylmethyl)-4-(hydroxyamino)-4-oxobutyl)-N-(isoxazol-5-yl)-5-spiro[2.4]heptane-6-carboxamide]
50%: inhibition at 30 µM [3]
16 µg/mL: Anti-bacterial activity (MIC), strain ECO+ 15-1 [9] | Anti-bacterial activity (MIC), strain ECO+ 15-4 [9] | Anti-bacterial activity (MIC), strain ECO− 15-1 [9] | Anti-bacterial activity (MIC), strain ECO− 15-4 [9] | Anti-bacterial activity (MIC), strain MSSA 15-6 [11]
62%: Inhibition of proliferation, Liver cancer BEL-7402 ([1]; 72 hours, 30 µM)
0.2 µg/mL: Anti-bacterial activity (MIC) ([7]; strain EFM 15-5)
2 µg/mL: Anti-bacterial activity (MIC) ([4]; strain BCA 14-4) | Anti-bacterial activity (MIC) ([4]; strain BCA 14-5) | Anti-bacterial activity (MIC) ([4]; strain BCA 14-6) | Anti-bacterial activity (MIC) ([7]; strain EFM 15-6) | Anti-bacterial activity (MIC), strain MRSE 15-2 [10] | Anti-bacterial activity (MIC), strain MRSE 15-3 [10] | Anti-bacterial activity (MIC), strain MRSE 15-7 [10] | Anti-bacterial activity (MIC), strain MSSA 15-3 [11]
0.25 µg/mL: Anti-bacterial activity (MIC), strain MSSE 15-6 [6] | Anti-bacterial activity (MIC), strain MSSA 15-5 [11] | Anti-bacterial activity (MIC) ([12]; strain SPN 16-4)
54%: Inhibition of proliferation, Lung cancer A549 ([2]; 72 hours, 30 µM)
4 µg/mL: Anti-bacterial activity (MIC) ([4]; strain BCA 14-7)
1 µg/mL: Anti-bacterial activity (MIC) ([4]; strain BCA 14-1) | Anti-bacterial activity (MIC) ([4]; strain BCA 14-8) | Anti-bacterial activity (MIC) ([4]; strain BCA 14-10) | Anti-bacterial activity (MIC) ([5]; strain EFA 15-9) | Anti-bacterial activity (MIC), strain MSSE 15-4 [6] | Anti-bacterial activity (MIC), strain MSSE 15-5 [6] | Anti-bacterial activity (MIC) ([7]; strain EFM 15-4) | Anti-bacterial activity (MIC), strain MRSA 15-2 [8] | Anti-bacterial activity (MIC), strain MRSA 15-4 [8]
64%: HCT116 inhibition rate/% ([13]; 30 µM)
32 µg/mL: Anti-bacterial activity (MIC) ([5]; strain EFA 15-1) | Anti-bacterial activity (MIC) ([5]; strain EFA 15-2) | Anti-bacterial activity (MIC) ([5]; strain EFA 15-3) | Anti-bacterial activity (MIC) ([5]; strain EFA 15-4) | Anti-bacterial activity (MIC) ([5]; strain EFA 15-5) | Anti-bacterial activity (MIC) ([5]; strain EFA 15-6) | Anti-bacterial activity (MIC) ([7]; strain EFM 15-1) | Anti-bacterial activity (MIC) ([7]; strain EFM 15-2) | Anti-bacterial activity (MIC) ([7]; strain EFM 15-3) | Anti-bacterial activity (MIC), strain ECO+ 15-2 [9] | Anti-bacterial activity (MIC), strain ECO+ 15-3 [9] | Anti-bacterial activity (MIC), strain ECO− 15-2 [9] | Anti-bacterial activity (MIC), strain ECO− 15-3 [9]
0.5 µg/mL: Anti-bacterial activity (MIC), strain MSSE 15-3 [6] | Anti-bacterial activity (MIC), strain MRSA 15-1 [8] | Anti-bacterial activity (MIC), strain MRSA 15-3 [8] | Anti-bacterial activity (MIC), strain MRSE 15-1 [10] | Anti-bacterial activity (MIC), strain MSSA 15-4 [11] | Anti-bacterial activity (MIC) ([12]; strain SPN 16-2)
> 50%: inhibition at 30 µM [1] | inhibition at 30 µM [2] | inhibition at 30 µM [13, 14]

Cc1cc(NC(=O)[C@@H]2CC3(CC3)CN2C(=O)[C@@H](CC(=O)NO)CC2CCCC2)no1 [Example 71]
49%: inhibition at 30 µM [1]
2 µg/mL: Anti-bacterial activity (MIC) ([5]; strain EFA 15-1) | Anti-bacterial activity (MIC) ([5]; strain EFA 15-2) | Anti-bacterial activity (MIC) ([5]; strain EFA 15-4) | Anti-bacterial activity (MIC) ([5]; strain EFA 15-5) | Anti-bacterial activity (MIC) ([5]; strain EFA 15-6) | Anti-bacterial activity (MIC) ([7]; strain EFM 15-2) | Anti-bacterial activity (MIC) ([7]; strain EFM 15-4) | Anti-bacterial activity (MIC) ([12]; strain SPN 16-2)
30%: inhibition at 30 µM [13, 14]
0.5 µg/mL: Anti-bacterial activity (MIC) ([4]; strain BCA 14-1) | Anti-bacterial activity (MIC) ([4]; strain BCA 14-4) | Anti-bacterial activity (MIC) ([4]; strain BCA 14-6) | Anti-bacterial activity (MIC) ([4]; strain BCA 14-7) | Anti-bacterial activity (MIC) ([5]; strain EFA 15-3) | Anti-bacterial activity (MIC) ([7]; strain EFM 15-1) | Anti-bacterial activity (MIC) ([7]; strain EFM 15-6) | Anti-bacterial activity (MIC), strain MRSA 15-4 [8]
≥ 30%: inhibition at 30 µM ([13]; Table 5, read-out: Inhibition of proliferation, Colorectal cancer HCT116)
0.25 µg/mL: Anti-bacterial activity (MIC) ([4]; strain BCA 14-5) | Anti-bacterial activity (MIC) ([4]; strain BCA 14-8) | Anti-bacterial activity (MIC) ([7]; strain EFM 15-3) | Anti-bacterial activity (MIC), strain MRSE 15-7 [10] | Anti-bacterial activity (MIC), strain MSSA 15-3 [11] | Anti-bacterial activity (MIC), strain MSSA 15-6 [11] | Anti-bacterial activity (MIC) ([12]; strain SPN 16-4)
1 µg/mL: Anti-bacterial activity (MIC) ([5]; strain EFA 15-9) | Anti-bacterial activity (MIC), strain MRSA 15-2 [8]
0.06 µg/mL: Anti-bacterial activity (MIC), strain MSSE 15-4 [6] | Anti-bacterial activity (MIC), strain MSSE 15-5 [6] | Anti-bacterial activity (MIC), strain MSSE 15-6 [6] | Anti-bacterial activity (MIC), strain MRSE 15-1 [10] | Anti-bacterial activity (MIC), strain MSSA 15-5 [11]
34%: inhibition at 30 µM [3]
0.16 µg/mL: Anti-bacterial activity (MIC), strain MSSE 15-3 [6]
5%: inhibition at 30 µM [2]
16 µg/mL: Anti-bacterial activity (MIC), strain ECO+ 15-1 [9] | Anti-bacterial activity (MIC), strain ECO+ 15-2 [9] | Anti-bacterial activity (MIC), strain ECO− 15-1 [9] | Anti-bacterial activity (MIC), strain ECO− 15-2 [9] | Anti-bacterial activity (MIC), strain ECO− 15-3 [9]
0.125 µg/mL: Anti-bacterial activity (MIC) ([4]; strain BCA 14-10) | Anti-bacterial activity (MIC) ([7]; strain EFM 15-5) | Anti-bacterial activity (MIC), strain MRSA 15-1 [8] | Anti-bacterial activity (MIC), strain MRSA 15-3 [8] | Anti-bacterial activity (MIC), strain MRSE 15-2 [10] | Anti-bacterial activity (MIC), strain MRSE 15-3 [10] | Anti-bacterial activity (MIC), strain MSSA 15-4 [11]
32 µg/mL: Anti-bacterial activity (MIC), strain ECO+ 15-3 [9] | Anti-bacterial activity (MIC), strain ECO+ 15-4 [9] | Anti-bacterial activity (MIC), strain ECO− 15-4 [9]
